Earlier results, collected in patent publication US5414009A, “Azabicyclo substituted oxa- or thia-diazole compounds” (Novo Nordisk A/S, priority 1992, dated 1995).
Like-named read-outs stand apart in the source and are kept apart here.

Tests used:
M1-sites = conditions: M1-site, pirenzepine sensitive site
[1] = system: muscarinic receptor in the CNS; conditions: for Kd: read-out: affinity of sites labelled by 3H-Oxo
[2] = in vivo

## CN1CCN(CC(=O)N2c3ccccc3C(=O)Nc3cccnc32)CC1 [Pirenzepine, pirenzepine, [N-methyl-^3 H]]
M1-sites
  selective binding to subtype of muscarinic receptors: binds selectively to subtype of muscarinic receptors
M2-sites
  interaction with M2-sites: also interact with M2

## C[N+](C)(C)CC#CCN1CCCC1=O [Compound 3H-Oxo]
[1]; CNS
  preference for agonist domains of the receptors: with a preference for agonist domains of the receptors
[1]; first of three sites (high affinity)
  Kd: 1.8 nM
[1]; second of three sites (medium affinity)
  Kd: 20 nM
[1]; third of three sites
  Kd: 3000 nM

## COC(=O)C1=CCCN(C)C1 [Arecoline, methyl 1-methyl-1,2,5,6-tetrahydropyridine-3-carboxylate]
[2]
  biological half life: very short biological half life
Muscarinic cholinergic
  cholinergic agonism: cholinergic agonist
muscarinic
  separation between central and peripheral muscarinic effects: small separation between central and peripheral muscarinic effects
